Measured values reported in patent US9144573B2, “Prostaglandin transporter inhibitors” (Albert Einstein College of Medicine of Yeshiva University, priority 2006, dated 2015).
“Also recorded” adds a separate entry of the source.

Experiments:
[1] = target: T1, prostaglandin transporter (PGT) (Rattus norvegicus, UniProt Q00910); experiment: PGE2 uptake by MDCK cells stably expressing PGT; type: cell-based; conditions: for inhibition at 5 µM: MDCK, read-out: % Inhib. at 5 μM
T1 construct: GFP; expressed in transfected cells
Method: MDCK or 3T3 cells were seeded at 15-20% confluence on 24-well plates. The day on which the cells were seeded was considered day 1. PGE2 uptake experiments were conducted on day 4. All of the PGE2 uptake experiments were conducted at room temperature. On day 4, cells were washed twice with Waymouth buffer (135 mM NaCl, 13 mM H-Hepes, 13 mM Na-Hepes, 2.5 mM CaCl2, 1.2 mM MgCl2, 0.8 mM MgSO4, 5 mM KCl, and 28 mM D-glucose). Then 200 μL of Waymouth buffer containing [^3H]PGE2 was added to each well. At the designated time, the uptake of [^3H]PGE2 was stopped by aspiration of uptake buffer; this was followed by immediate washing twice with 500 μL of chilled Waymouth buffer. Cells were then lysed with 100 μL lysis buffer containing 0.25% SDS and 0.05 N NaOH. 1.5 mL of scintillation solution was added to each well, and intracellular [^3H]PGE2 was counted by MicroBeta Counter.
For preliminary screening of the compounds, 25 μL of Waymouth buffer containing small organic compounds were added to each well; this was immediately followed by the addition of 175 μL of Waymouth buffer containing [^3H]PGE2. In each well, the total volume of uptake medium was 200 μL. Organic compounds were first dissolved in DMSO and then diluted in Waymouth buffer. The percent inhibition of [^3H]PGE2 uptake by compounds was calculated as [(uptakevehicle−uptakeinhibitor)÷(uptakevehicle)]×100.
The initial velocities at various initial extracellular concentrations of PGE2 were determined from the PGE2 uptake in the first 2 minutes; these were linear over the time course of PGE2 uptake. Ki values were obtained by curve fitting the reciprocal of initial velocities of PGE2 uptake versus the reciprocal of extracellular PGE2 concentrations at various concentrations of the inhibitors. At low PGE2 concentrations, the extracellular concentrations were taken as ^3H labeled PGE2, which has a specific activity of 500 μCi/mol. At high concentrations of PGE2, a mixture of ^3H labeled and unlabeled PGE2 was made to a final specific activity of 25 μCi/mol.

MDCK cells = type: cell-based, Canine
Method: We used TGBz T34 to further isolate the efflux process of PGE2. […] The intracellular concentrations of PGE2 at different time points were calculated by dividing the total amount of intracellular PGE2 on the dish by the total volume of cells, based on cell number counts and published individual cell volume (Schneider et al., 2000; Hill et al., 2004). Since the addition of inhibitor involved removing extracellular tracer PGE2, the intracellular PGE2 concentration at the point of inhibitor addition approximates the outwardly-directed PGE2 gradient.
This linearity held true even when the intracellular PGE2 concentration was extended to almost 800 nM, i.e. 10 fold the Km of PGT for PGE2 (data not shown). From the slope of the relationship, we generated a range of permeability coefficients for PGE2 efflux of 1.2 to 5.3×10^−6 cm/sec, based on the range of MDCK cell volumes reported in the literature (Schneider et al., 2000; Hill et al., 2004). […] The ratio of the influx-to-efflux permeability coefficients was thus in the range 2.7 to 117.

[2] = Table 1, PGE2 uptake, MDCK cells expressing PGT

Row | inhibition at 5 µM [1] | Ki ([1]; Table 2) | SMILES | also measured
1 | 72% |  | [N-]=[N+]=NCCOCCOCCNC(=O)c1ccc(Nc2nc(NCCCCc3ccccc3)nc(NCCOCCOCCNC(=O)c3ccccc3)n2)cc1 [T22A] | 
2 | 74% |  | CCCCCCCNc1nc(NCCOCCOCCNC(=O)c2ccccc2)nc(Nc2ccc(C(=O)NCCOCCOCCN=[N+]=[N-])cc2)n1 [T07A] | 
3 | 82% | 3.9 µM | [N-]=[N+]=NCCOCCOCCNC(=O)c1ccc(Nc2nc(NCCOCCOCCNC(=O)c3ccccc3)nc(Nc3ccc(F)cc3)n2)cc1 [T25A] | 
4 | 65% | 6.2 µM | [N-]=[N+]=NCCOCCOCCNC(=O)c1ccc(Nc2nc(NCCOCCOCCNC(=O)c3ccccc3)nc(NCCc3ccc(O)cc3)n2)cc1 [T41] | Ki [1, 2]: 6.2 ± 0.7 µM
5 | 64% |  | CC(C)CCNc1nc(NCCOCCOCCNC(=O)c2ccccc2)nc(Nc2ccc(C(=O)NCCOCCOCCN=[N+]=[N-])cc2)n1 [T08A] | 
6 | 76% |  | [N-]=[N+]=NCCOCCOCCNC(=O)c1ccc(Nc2nc(NCCOCCOCCNC(=O)c3ccccc3)nc(NCCc3ccc(F)cc3)n2)cc1 [T18A] | 
7 | 84% | 3.6 µM | [N-]=[N+]=NCCOCCOCCNC(=O)c1ccc(Nc2nc(NCCOCCOCCNC(=O)c3ccccc3)nc(Nc3ccccc3)n2)cc1 [T28A] | 
8 | 56% |  | [N-]=[N+]=NCCOCCOCCNC(=O)c1ccc(Nc2nc(NCCOCCOCCNC(=O)c3ccccc3)nc(NCc3ccccc3)n2)cc1 [T14A] | 
9 | 72% |  | [N-]=[N+]=NCCOCCOCCNC(=O)c1ccc(Nc2nc(NCCCc3ccccc3)nc(NCCOCCOCCNC(=O)c3ccccc3)n2)cc1 [T21A] | 
10 |  |  | CCCCC[C@H](O)/C=C/[C@H]1[C@H](O)CC(=O)[C@@H]1C/C=C\CCCC(=O)O [PGE2, prostaglandin E2] | permeability coefficient for PGE2 efflux (MDCK cells): 1.2-5.3 ×10^−6 cm/sec; permeability coefficient for PGE2 influx (by simple diffusion) (MDCK cells): 0.45 ×10⁻⁶ cm/s; ratio of the influx-to-efflux permeability coefficients (MDCK cells): 2.7-117
11 | 54% |  | CCCNc1nc(NCCOCCOCCNC(=O)c2ccccc2)nc(Nc2ccc(C(=O)NCCOCCOCCN=[N+]=[N-])cc2)n1 [T03A] | 
12 | 84% | 3.7 µM | [N-]=[N+]=NCCOCCOCCNC(=O)c1ccc(Nc2nc(NCCOCCOCCNC(=O)c3ccccc3)nc(NCCc3ccccc3)n2)cc1 [T34] | Ki ([1]; 0 min pre-incubation, separate experiments): 1.22 µM; intracellular PGE2 after addition of inhibitor at peak level ([1]; 25 μM added at 9 minutes): rapid depletion of intracellular PGE2; time for intracellular PGE2 to fall to baseline ([1]; 25 μM added at peak (9 minutes)): ≤ 5 min; inhibition of PGE2 transport by PGT ([1]; 25 μM, added at the beginning of uptake, listed as TGBz T34): overshoot phenomenon completely disappeared; also recorded: full inhibition; Ki ([1]; 10 min pre-incubation): 1.63 µM; Ki ([1]; 20 min pre-incubation): 1.41 µM; Ki [1, 2]: 3.7 ± 0.2 µM; mode of inhibition ([1]; double reciprocal analysis): competitive inhibitor; Ki ([1]; double-reciprocal plots, PGE2 varied at 0, 3, 6 μM inhibitor): 3.7 ± 0.2 µM
